Laboratory results as given in patent US20170100489A1, “POLYETHYLENE GLYCOL-MODIFIED INTEGRIN BLOCKER HM-3 AND USE THEREOF” (HANMEI XU, priority 2012, published 2017).
Like-named read-outs stand apart in the source and are kept apart here. One block for each molecule: values may come before it. Where a SMILES comes first, the peptide text is derived from it. Where no end group is shown, it is not given here. mPEG‑SC20k = methoxy polyethylene glycol-succinimidyl-carbonate, 20000 Da

How the values were obtained:
[1] = tested on: human pancreatic cancer SW-1990 xenograft tumors; test: Tumor growth inhibition, SW-1990 xenograft
Description: Picked the tumor tissue of vigorous growth and was cut into pieces of about 1.5 mm^3. Under sterile conditions, the tumor tissue was inoculated subcutaneously on the right of nude mice. Tumor diameter was measured with a Vernier caliper. The animals which had tumors with a size of 100-200 mm^3 were randomly divided into groups. The effect of polypeptide on anti-tumor was dynamically observed through the method of measuring tumor diameter. The times of measuring tumor diameter were once 2 days, and meantime, weighed mice. The mice in experimental group were infused polypeptide through tail vein, once 3 days. The mice in the placebo group were injected saline with the same volume.
(§1) a, b respectively represent the length and width. According to the result of measurement, calculate the relative tumor volume. Evaluation of antitumor activity is relative tumor proliferation rate T/C(%). The formula is as follows: T/C(%)^=TRTV/CRTV×100%
TRTV:Treatment group RTV; CRTV: negative control group RTV

[2] = tested on: human thyroid cancer SW-579 xenograft tumors; test: Tumor growth inhibition, SW-579 xenograft; settings: for Final weight / Rate of inhibiting tumors / Tumor weight: Once 1 day
Description: (§2) Picked the tumor tissue of vigorous growth and was cut into pieces of about 1.5 mm^3. Under sterile conditions, the tumor tissue was inoculated subcutaneously on the right of nude mice. Tumor diameter was measured with a vernier caliper. The animals which had tumors with a size of 100-200 mm^3 were randomly divided into groups. The effect of polypeptide on anti-tumor was dynamically observed through the method of measuring tumor diameter. The times of measuring tumor diameter were once 2 days, and meantime, weighed mice. The mice in experimental group were infused polypeptide through tail vein, once 3 days. The mice in the placebo group were injected saline with the same volume. Tumor volume formula:
as §1

[3] = tested on: human nasopharyngeal cancer CNE xenograft tumors; test: Tumor growth inhibition, CNE xenograft
Description: as §2
a, b respectively represent the length and width. According to the result of measurement, calculate the relative tumor volume. Evaluation of antitumor activity is relative tumor proliferation rate T/C(%). The formula is as follows: T/C(%)^−TRTV/CRTV×100%

[4] = tested on: human ovarian cancer SK-OV-3 xenograft tumors; test: Tumor growth inhibition, SK-OV-3 xenograft
Description: Human ovarian cancer SK-OV-3 cell lines in logarithmic growth phase were picked, and made into 5×10^7/ml cell suspension of under sterile conditions, and then 0.1 ml suspension was inoculated subcutaneously at the right armpit of nude mice. Tumor diameter was measured with a vernier caliper. The animals which had tumors with a size of 100-200 mm^3 were randomly divided into groups. The effect of polypeptide on anti-tumor was dynamically observed through the method of measuring tumor diameter. The times of measuring tumor diameter were once 2 days, and meantime, weighed mice. The mice in experimental group were infused polypeptide through tail vein. The mice in the placebo group were injected saline with the same volume, once 1 day; Cisplatin group: 10 mg/kg, once 1 week; Endostar group: 2.5 mg/kg, once 1 day; The groups of high, intermediate and low polypeptide: 6, 3, 1.5 mg/kg, respectively, once 1 day. After administration, all mice were sacrificed. Stripped the tumors and weighed.

[5] = tested on: human testicular cancer 5637 xenograft tumors; test: Tumor growth inhibition, 5637 xenograft
Description: (§3) Human testicular cancer 5637 cell lines in logarithmic growth phase were picked, and made into 5×10^7/ml cell suspension of under sterile conditions, and then 0.1 ml suspension was inoculated subcutaneously at the right armpit of nude mice. Tumor diameter was measured with a vernier caliper. The animals which had tumors with a size of 100-200 mm^3 were randomly divided into groups. The effect of polypeptide on anti-tumor was dynamically observed through the method of measuring tumor diameter. The times of measuring tumor diameter were once 2 days, and meantime, weighed mice. The mice in experimental group were infused polypeptide through tail vein. […] After administration, all mice were sacrificed. Stripped the tumors and weighed.

[6] = tested on: human prostate cancer DU-145 xenograft tumors; test: Tumor growth inhibition, DU-145 xenograft
Description: Human prostate cancer DU-145 cell lines in logarithmic growth phase were picked, and made into 5×10^7/ml cell suspension of under sterile conditions, and then 0.1 ml suspension was inoculated subcutaneously at the right armpit of nude mice. Tumor diameter was measured with a vernier caliper. The animals which had tumors with a size of 100-200 mm^3 were randomly divided into groups. The effect of polypeptide on anti-tumor was dynamically observed through the method of measuring tumor diameter. The times of measuring tumor diameter were once 2 days, and meantime, weighed mice. The mice in experimental group were infused polypeptide through tail vein. The mice in the placebo group were injected saline with the same volume, once 1 day; Cisplatin group: 10 mg/kg, once 1 week; Endostar group: 2.5 mg/kg, once 1 day; The groups of high, intermediate and low polypeptide: 6, 3, 1.5 mg/kg, respectively, once 1 day. After administration, all mice were sacrificed. Stripped the tumors and weighed.

[7] = tested on: human gastric cancer MGC803 xenograft tumors; test: Tumor growth inhibition, MGC803 xenograft
Description: as §2, §1
(§4) TRTV: Treatment group RTV; CRTV: negative control group RTV

[8] = tested on: human breast cancer MDA-MB-231 xenograft tumors; test: Tumor growth inhibition, MDA-MB-231 xenograft
Description: Picked the tumor tissue of vigorous growth and was cut into pieces of about 1.5 mm^3. Under sterile conditions, the tumor tissue was inoculated subcutaneously on the right of nude mice. Tumor diameter was measured with a vernier caliper. The animals which had tumors with a size of 100-200 mm^3 were randomly divided into groups. The effect of polypeptide on anti-tumor was dynamically observed through the method of measuring tumor diameter. The times of measuring tumor diameter were once 2 days, and meantime, weighed mice. The mice in experimental group were infused polypeptide through tail vein, once 3 days. The mice in the placebo group were injected saline with the same volume. Tumor volume formula: TV=0.52×a×b^2
as §1, §4

[9] = tested on: sarcoma HT-1080 xenograft tumors; test: Tumor growth inhibition, HT-1080 xenograft
Description: Tumor diameter was measured with a vernier caliper. […] After administration, all mice were sacrificed. Stripped the tumors and weighed.

[10] = tested on: human endometrial cancer HHUA xenograft tumors; test: Tumor growth inhibition, HHUA xenograft
Description: Human endometrial cancer HHUA cell lines in logarithmic growth phase were picked, and made into 5×10^7/ml cell suspension of under sterile conditions, and then 0.1 ml suspension was inoculated subcutaneously at the right armpit of nude mice. Tumor diameter was measured with a vernier caliper. The animals which had tumors with a size of 100-200 mm^3 were randomly divided into groups. The effect of polypeptide on anti-tumor was dynamically observed through the method of measuring tumor diameter. The times of measuring tumor diameter were once 2 days, and meantime, weighed mice. The mice in experimental group were infused polypeptide through tail vein. The mice in the placebo group were injected saline with the same volume, once 1 day; Taxol group: 10 mg/kg, once 1 week; Endostar group: 2.5 mg/kg, once 1 day; The groups of high, intermediate and low polypeptide: 6, 3, 1.5 mg/kg, respectively, once 1 day. After administration, all mice were sacrificed. Stripped the tumors and weighed.

[11] = tested on: human esophageal cancer Ec109 xenograft tumors; assay type: in vivo, nude mice
Description: Tumor diameter was measured with a vernier caliper. […] Tumor volume formula: […]
a, b respectively represent the length and width. […] The formula is as follows: […]
TRTV: Treatment Group RTV; CRTV: Negative Control Group RTV

[12] = tested on: human gallbladder cancer GBC-SD xenograft tumors; test: Tumor growth inhibition, GBC-SD xenograft
Description: Human gallbladder cancer GBC-SD cell lines in logarithmic growth phase were picked and made into 5×10^7/ml cell suspension of under sterile conditions, and then 0.1 ml suspension was inoculated subcutaneously at the right armpit of nude mice. Tumor diameter was measured with a vernier caliper. The animals which had tumors with a size of 100-200 mm^3 were randomly divided into groups. The effect of polypeptide on anti-tumor was dynamically observed through the method of measuring tumor diameter. The times of measuring tumor diameter were once 2 days, and meantime, weighed mice. The mice in experimental group were infused polypeptide through tail vein. The mice in the placebo group were injected saline with the same volume, once 1 day; Taxol group: 10 mg/kg, once 1 week; Endostar group: 2.5 mg/kg, once 1 day; The groups of high, intermediate and low polypeptide: 6, 3, 1.5 mg/kg, respectively, once 1 day. After administration, all mice were sacrificed. Stripped the tumors and weighed.

[13] = tested on: human cancer 5637 xenograft tumors; test: Tumor growth inhibition, 5637 xenograft
Description: as §3

[14] = Immunogenicity assay, antibody titers in serum by ELISA; settings: 3.0 mg/kg iv once a day, 8 weeks; FIG. 2
Description: BALB/c white mice were randomly divided into 2 groups, and the same number of male and female. 36 mg/kg mPEG-SC20k-HM-3 and 3.0 mg/kg HM-3 were administrated intravenously through tail vein, respectively, lasting 8 weeks, and collected blood from the orbital venous plexus once a week during 1-12 weeks. Centrifuged 2 min at 12000 rpm, collected the supernatant, and stored in the condition of −20° C. Dissolved at room temperature, 0.1 ml was used to measure antibody titers in serum by ELISA.
Administration: once a day, 6 rats (male, 3; female, 3)
Administration: once two days, 6 rats (male, 3; female, 3)

[15] = tested on: human colon cancer HT-29 xenograft tumors; test: Tumor growth inhibition, HT-29 xenograft
Description: Human colon cancer HT-29 cell lines in logarithmic growth phase were picked, and made into 5×10^7/ml cell suspension of under sterile conditions, and then 0.1 ml suspension was inoculated subcutaneously at the right armpit of nude mice. Tumor diameter was measured with a vernier caliper. The animals which had tumors with a size of 100-200 mm^3 were randomly divided into groups. The effect of polypeptide on anti-tumor was dynamically observed through the method of measuring tumor diameter. The times of measuring tumor diameter were once 2 days, and meantime, weighed mice. The mice in experimental group were infused polypeptide through tail vein. The mice in the placebo group were injected saline with the same volume, once 1 day; Taxol group: 10 mg/kg, once 1 week; Endostar group: 2.5 mg/kg, once 1 day; The groups of high, intermediate and low polypeptide: 6, 3, 1.5 mg/kg, respectively, once 1 day. After administration, all mice were sacrificed. Stripped the tumors and weighed.

[16] = tested on: human cervical cancer HeLa xenograft tumors; test: Tumor growth inhibition, HeLa xenograft
Description: Human cervical cancer HeLa cell lines in logarithmic growth phase were picked, and made into 5×10^7/ml cell suspension of under sterile conditions, and then 0.1 ml suspension was inoculated subcutaneously at the right armpit of nude mice. Tumor diameter was measured with a vernier caliper. The animals which had tumors with a size of 100-200 mm^3 were randomly divided into groups. The effect of polypeptide on anti-tumor was dynamically observed through the method of measuring tumor diameter. The times of measuring tumor diameter were once 2 days, and meantime, weighed mice. The mice in experimental group were infused polypeptide through tail vein. The mice in the placebo group were injected saline with the same volume, once 1 day; Taxol group: 10 mg/kg, once 1 week; Endostar group: 2.5 mg/kg, once 1 day; The groups of high, intermediate and low polypeptide: 6, 3, 1.5 mg/kg, respectively, once 1 day. After administration, all mice were sacrificed. Stripped the tumors and weighed.

[17] = tested on: human bladder cancer HT1376 xenograft tumors; test: Tumor growth inhibition, HT1376 xenograft
Description: Human bladder cancer HT1376 cell lines in logarithmic growth phase were picked, and made into 5×10^7/ml cell suspension of under sterile conditions, and then 0.1 ml suspension was inoculated subcutaneously at the right armpit of nude mice. Tumor diameter was measured with a vernier caliper. The animals which had tumors with a size of 100-200 mm^3 were randomly divided into groups. The effect of polypeptide on anti-tumor was dynamically observed through the method of measuring tumor diameter. The times of measuring tumor diameter were once 2 days, and meantime, weighed mice. The mice in experimental group were infused polypeptide through tail vein. The mice in the placebo group were injected saline with the same volume, once 1 day; Taxol group: 10 mg/kg, once 1 week; Endostar group: 2.5 mg/kg, once 1 day; The groups of high, intermediate and low polypeptide: 6, 3, 1.5 mg/kg, respectively, once 1 day. After administration, all mice were sacrificed. Stripped the tumors and weighed.

[18] = Pharmacokinetics of mPEG-SC20k-HM-3 and HM-3 in rats (plasma concentration by ELISA)
Description: SD rats were randomly divided into six groups with the same number for male and female. Take three groups were administered intravenously integrin antagonist polypeptide with a high dose of 52 mg/kg (equivalent to HM-3 4.2 mg/kg), an intermediate dose of 26 mg/kg (equivalent to HM-3 2.1 mg/kg), a low-dose of 13 mg/kg (equivalent to HM-3 1.05 mg/kg). The other 3 groups were injected HM-3 with a high dose of 4.2 mg/kg, an intermediate dose of 2.1 mg/kg, a low doses of 1.05 mg/kg. Collected whole blood 0.5 ml once from the orbital venous plexus after 0.5 h, 1 h, 2 h, 3 h, 6 h, 12 h, 24 h, 48 h, 72 h, 96 h, 108 h, 132 h of drug administration, and applied heparin to get the effect of anti-coagulation. 12000 rpm/2 min centrifuged plasma. Draw supernatant 200 μl and 80° C. preheated PBS (0.05 M pH7.4) buffer 600 μl and mixed. Bath in the 80° C. water for 30 min. Centrifuged 2 min at 12000 rpm, and collected the supernatant, and stored in the condition of −20° C. Dissolved at room temperature, measured integrin antagonist peptide plasma concentration by ELISA.

[19] = tested on: human lung cancer H460 xenograft tumors; test: Tumor growth inhibition, H460 xenograft
Description: as §2, §1, §4

[20] = tested on: human kidney cancer A498 xenograft tumors; test: Tumor growth inhibition, A498 xenograft
Description: Human kidney cancer A498 cell lines in logarithmic growth phase were picked and made into 5×10^7/ml cell suspension of under sterile conditions, and then 0.1 ml suspension was inoculated subcutaneously at the right armpit of nude mice. Tumor diameter was measured with a vernier caliper. The animals which had tumors with a size of 100-200 mm^3 were randomly divided into groups. The effect of polypeptide on anti-tumor was dynamically observed through the method of measuring tumor diameter. The times of measuring tumor diameter were once 2 days, and meantime, weighed mice. The mice in experimental group were infused polypeptide through tail vein. The mice in the placebo group were injected saline with the same volume, once 1 day; Taxol group: 10 mg/kg, once 1 week; Endostar group: 2.5 mg/kg, once 1 day; The groups of high, intermediate and low polypeptide: 6, 3, 1.5 mg/kg, respectively, once 1 day. After administration, all mice were sacrificed. Stripped the tumors and weighed.

integrin ανβ3 = biological target: T1, integrin ανβ3 (human, UniProt P06756 31-1048; P05106 27-788); test: flow cytometry, FITC-labeled peptide on Bel-7402 and MCF-7 cells pre-incubated with function-blocking anti-integrin antibodies
T1 construct: whole, on cells; Endogenous integrin on Bel-7402 and MCF-7 cells; also called alpha v beta 3

integrin α5β1 = biological target: T2, integrin α5β1 (human, UniProt P08648 42-1049; P05556 21-798); test: as above
T2 construct: whole, on cells; Endogenous integrin on Bel-7402 and MCF-7 cells; also called alpha 5 beta 1
T2 sequence (P08648 42-1049, chain 1 of 2): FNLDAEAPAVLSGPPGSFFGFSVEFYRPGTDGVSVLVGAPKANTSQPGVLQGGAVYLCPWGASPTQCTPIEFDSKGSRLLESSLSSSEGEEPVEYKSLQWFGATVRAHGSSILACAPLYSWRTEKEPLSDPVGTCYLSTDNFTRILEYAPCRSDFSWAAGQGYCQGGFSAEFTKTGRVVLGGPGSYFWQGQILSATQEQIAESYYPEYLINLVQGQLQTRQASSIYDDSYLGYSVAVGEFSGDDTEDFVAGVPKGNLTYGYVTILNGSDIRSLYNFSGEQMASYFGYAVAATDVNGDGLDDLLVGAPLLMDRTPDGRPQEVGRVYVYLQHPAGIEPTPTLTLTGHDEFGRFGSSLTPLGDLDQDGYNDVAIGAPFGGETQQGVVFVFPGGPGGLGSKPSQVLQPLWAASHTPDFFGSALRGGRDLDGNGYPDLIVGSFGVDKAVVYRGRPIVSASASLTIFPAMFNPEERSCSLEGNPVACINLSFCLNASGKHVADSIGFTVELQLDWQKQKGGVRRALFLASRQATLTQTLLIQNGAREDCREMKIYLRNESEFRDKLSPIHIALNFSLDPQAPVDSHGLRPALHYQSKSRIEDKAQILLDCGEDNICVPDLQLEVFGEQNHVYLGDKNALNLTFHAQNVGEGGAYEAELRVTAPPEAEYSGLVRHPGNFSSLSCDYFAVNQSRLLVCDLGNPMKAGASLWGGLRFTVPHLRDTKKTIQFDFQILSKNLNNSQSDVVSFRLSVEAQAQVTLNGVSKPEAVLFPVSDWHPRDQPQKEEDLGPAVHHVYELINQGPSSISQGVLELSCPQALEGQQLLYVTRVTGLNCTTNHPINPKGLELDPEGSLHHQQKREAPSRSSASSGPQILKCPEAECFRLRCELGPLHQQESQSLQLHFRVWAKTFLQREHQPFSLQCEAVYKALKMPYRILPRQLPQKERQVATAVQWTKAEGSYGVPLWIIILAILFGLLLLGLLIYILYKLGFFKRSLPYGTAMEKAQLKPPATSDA
T2 sequence (P05556 21-798, chain 2 of 2): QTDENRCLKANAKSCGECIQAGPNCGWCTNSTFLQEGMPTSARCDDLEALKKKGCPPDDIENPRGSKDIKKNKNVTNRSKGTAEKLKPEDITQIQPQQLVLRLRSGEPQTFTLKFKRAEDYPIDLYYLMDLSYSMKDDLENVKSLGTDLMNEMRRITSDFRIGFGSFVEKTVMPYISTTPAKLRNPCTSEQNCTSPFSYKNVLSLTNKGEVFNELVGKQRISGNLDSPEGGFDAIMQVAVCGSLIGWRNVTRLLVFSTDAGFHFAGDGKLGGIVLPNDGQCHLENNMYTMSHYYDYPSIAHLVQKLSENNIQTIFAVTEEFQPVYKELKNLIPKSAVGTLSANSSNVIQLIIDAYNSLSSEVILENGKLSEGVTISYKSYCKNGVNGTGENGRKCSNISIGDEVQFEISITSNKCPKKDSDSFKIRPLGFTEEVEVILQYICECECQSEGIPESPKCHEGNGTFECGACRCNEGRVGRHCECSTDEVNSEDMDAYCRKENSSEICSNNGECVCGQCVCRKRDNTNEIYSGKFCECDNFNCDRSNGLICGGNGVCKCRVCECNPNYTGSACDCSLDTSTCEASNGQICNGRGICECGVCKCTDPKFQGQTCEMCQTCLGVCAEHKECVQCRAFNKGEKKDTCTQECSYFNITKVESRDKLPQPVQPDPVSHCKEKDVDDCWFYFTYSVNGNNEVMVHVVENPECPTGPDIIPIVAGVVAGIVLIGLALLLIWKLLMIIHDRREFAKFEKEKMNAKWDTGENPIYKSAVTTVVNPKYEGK

T1 sequence (P06756 31-1048, chain 1 of 2): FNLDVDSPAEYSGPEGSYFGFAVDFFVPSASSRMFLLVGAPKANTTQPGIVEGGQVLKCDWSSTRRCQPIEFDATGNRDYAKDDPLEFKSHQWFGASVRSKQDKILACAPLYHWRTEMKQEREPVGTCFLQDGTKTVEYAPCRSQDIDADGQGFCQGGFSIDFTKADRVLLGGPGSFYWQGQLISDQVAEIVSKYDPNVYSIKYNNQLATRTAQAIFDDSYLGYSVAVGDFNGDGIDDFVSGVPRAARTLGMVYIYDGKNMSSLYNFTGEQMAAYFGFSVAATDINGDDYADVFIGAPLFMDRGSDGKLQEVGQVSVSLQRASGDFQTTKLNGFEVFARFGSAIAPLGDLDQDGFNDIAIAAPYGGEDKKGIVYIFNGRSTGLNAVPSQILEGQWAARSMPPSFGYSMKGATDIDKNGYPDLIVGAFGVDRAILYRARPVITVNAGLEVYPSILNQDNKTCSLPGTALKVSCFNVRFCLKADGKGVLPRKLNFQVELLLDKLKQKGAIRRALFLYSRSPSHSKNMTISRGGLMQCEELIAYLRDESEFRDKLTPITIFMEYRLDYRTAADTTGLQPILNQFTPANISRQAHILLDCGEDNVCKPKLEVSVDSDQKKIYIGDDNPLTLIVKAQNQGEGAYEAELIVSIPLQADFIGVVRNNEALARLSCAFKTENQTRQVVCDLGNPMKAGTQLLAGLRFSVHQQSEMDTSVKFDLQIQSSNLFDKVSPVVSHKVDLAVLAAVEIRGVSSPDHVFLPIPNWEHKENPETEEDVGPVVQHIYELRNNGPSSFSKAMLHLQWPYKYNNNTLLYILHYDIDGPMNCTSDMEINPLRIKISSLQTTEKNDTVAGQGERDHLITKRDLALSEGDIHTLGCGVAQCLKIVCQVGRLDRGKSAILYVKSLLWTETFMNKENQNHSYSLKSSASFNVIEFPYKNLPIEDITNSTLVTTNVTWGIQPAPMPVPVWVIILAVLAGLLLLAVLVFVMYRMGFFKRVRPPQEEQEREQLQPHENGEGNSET
T1 sequence (P05106 27-788, chain 2 of 2): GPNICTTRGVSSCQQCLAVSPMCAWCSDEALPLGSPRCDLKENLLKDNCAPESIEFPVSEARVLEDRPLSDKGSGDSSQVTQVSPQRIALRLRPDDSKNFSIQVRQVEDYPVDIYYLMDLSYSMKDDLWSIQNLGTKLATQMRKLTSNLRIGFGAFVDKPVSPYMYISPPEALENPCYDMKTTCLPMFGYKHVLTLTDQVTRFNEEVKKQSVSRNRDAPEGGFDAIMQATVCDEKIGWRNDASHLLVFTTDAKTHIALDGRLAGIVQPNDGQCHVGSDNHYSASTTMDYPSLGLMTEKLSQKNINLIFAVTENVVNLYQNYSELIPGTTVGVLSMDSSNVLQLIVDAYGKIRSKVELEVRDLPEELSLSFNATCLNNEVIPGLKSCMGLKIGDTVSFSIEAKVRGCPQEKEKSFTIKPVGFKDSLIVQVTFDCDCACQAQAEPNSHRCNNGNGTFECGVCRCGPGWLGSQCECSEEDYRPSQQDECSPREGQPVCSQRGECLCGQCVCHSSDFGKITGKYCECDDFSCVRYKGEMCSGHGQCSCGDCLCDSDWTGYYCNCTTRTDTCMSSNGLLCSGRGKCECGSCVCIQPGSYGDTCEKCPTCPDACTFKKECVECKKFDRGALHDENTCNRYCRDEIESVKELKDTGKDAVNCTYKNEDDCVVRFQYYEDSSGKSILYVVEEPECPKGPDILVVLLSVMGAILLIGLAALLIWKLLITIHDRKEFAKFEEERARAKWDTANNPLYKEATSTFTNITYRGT

Molecule: O=c1[nH]cc(F)c(=O)[nH]1 [5-Fu, reference compound]
Final weight ([1]; 10 mg/kg, Once 1 day): 22.43 g
Rate of inhibiting tumors ([1]; 10 mg/kg, Once 1 day): 76.68%
Tumor weight ([1]; 10 mg/kg, Once 1 day): 0.323 g
toxicity in experimental animals ([2]; 10 mg/kg): greater toxicity and leads to the weight loss and death
Final weight ([2]; 10 mg/kg): 21.32 g
Rate of inhibiting tumors ([2]; 10 mg/kg): 74.50%
Tumor weight ([2]; 10 mg/kg): 0.320 g

Molecule: N.N.[Cl][Pt][Cl] [Cisplatin, reference compound]
influence on the weight of experimental animals ([3]; 10 mg/kg): significantly affects the weight
Final weight ([3]; 10 mg/kg, Twice 1 week): 22.33 g
Rate of inhibiting tumors ([3]; 10 mg/kg, Twice 1 week): 73.36%
Tumor weight ([3]; 10 mg/kg, Twice 1 week): 0.320 g
Final weight ([4]; 10 mg/kg, Twice 1 week): 22.19 g
Rate of inhibiting tumors ([4]; 10 mg/kg, Twice 1 week): 76.13%
Tumor weight ([4]; 10 mg/kg, Twice 1 week): 0.302 g
Rate of inhibiting tumors ([5]; 10 mg/kg, Twice 1 week): 70.74%
Rate of inhibiting tumors ([6]; 10 mg/kg, Twice a week): 70.60%

time of administration at which antibody appeared [14]: third week
AUC0-∞ ([18]; SD rats, intravenous): 25.63 mg/L/h
t1/2p ([18]; SD rats, intravenous): 27.66 min
t1/2β ([18]; SD rats, intravenous): 27.6 min
clearance ([18]; both, SD, rat, plasma, iv): 23 mL/min/kg
half-life ([18]; both, SD, rat, plasma, iv): 27.6 min
MRT inf ([18]; both, SD, rat, plasma, iv, MRT0-∞, SD rats): 2.16 min
Molecule: CC[C@H](C)[C@H](N)C(=O)N[C@H](C(=O)N[C@@H](CCCNC(=N)N)C(=O)N[C@@H](CCCNC(=N)N)C(=O)N[C@@H](C)C(=O)N[C@@H](CC(=O)O)C(=O)N[C@@H](CCCNC(=N)N)C(=O)N[C@@H](C)C(=O)N[C@@H](C)C(=O)N[C@H](C(=O)N1CCC[C@H]1C(=O)NCC(=O)NCC(=O)NCC(=O)NCC(=O)N[C@@H](CCCNC(=N)N)C(=O)NCC(=O)N[C@@H](CC(=O)O)C(=O)O)C(C)C)C(C)C [HM-3, Ile-Val-Arg-Arg-Ala-Asp-Arg-Ala-Ala-Val-Pro-Gly-Gly-Gly-Gly-Arg-Gly-Asp] (H-IVRRADRAAVPGGGGRGD-OH; N-terminus assumed)
Final weight ([3]; 1.5 mg/kg, Once 3 days): 22.85 g
Rate of inhibiting tumors ([3]; 1.5 mg/kg, Once 3 days): 61.03%
Tumor weight ([3]; 1.5 mg/kg, Once 3 days): 0.468 g
Final weight ([7]; 1.5 mg/kg, Once 3 days): 22.37 g
Rate of inhibiting tumors ([7]; 1.5 mg/kg, Once 3 days): 70.40%
Tumor weight ([7]; 1.5 mg/kg, Once 3 days): 0.214 g
Final weight ([8]; 1.5 mg/kg, Once 3 days): 23.54 g
Rate of inhibiting tumors ([8]; 1.5 mg/kg, Once 3 days): 57.14%
Tumor weight ([8]; 1.5 mg/kg, Once 3 days): 0.533 g
Rate of inhibiting tumors ([9]; 1.5 mg/kg, Once 3 days): 59.24%
Tumor weight ([9]; 1.5 mg/kg, Once 3 days): 0.790 g
Final weight ([10]; 1.5 mg/kg, Once 3 days): 22.85 g
Rate of inhibiting tumors ([10]; 1.5 mg/kg, Once 3 days): 54.49%
Tumor weight ([10]; 1.5 mg/kg, Once 3 days): 0.550 g
Final weight ([1]; 1.5 mg/kg, Once 3 days): 23.10 g
Rate of inhibiting tumors ([1]; 1.5 mg/kg, Once 3 days): 57.94%
Tumor weight ([1]; 1.5 mg/kg, Once 3 days): 0.582 g
Rate of inhibiting tumors ([11]; 1.5 mg/kg, Once 3 days): 60.57%
Tumor weight ([11]; 1.5 mg/kg, Once 3 days): 0.365 g
Rate of inhibiting tumors ([4]; 1.5 mg/kg, Once 3 days): 49.49%
Tumor weight ([4]; 1.5 mg/kg, Once 3 days): 0.639 g
Final weight ([12]; 1.5 mg/kg, Once 3 days): 20.92 g
Rate of inhibiting tumors ([12]; 1.5 mg/kg, Once 3 days): 57.59%
Tumor weight ([12]; 1.5 mg/kg, Once 3 days): 0.450 g
Rate of inhibiting tumors ([5]; 1.5 mg/kg, Once 3 days): 59.40%
Tumor weight ([5]; 1.5 mg/kg, Once 3 days): 0.82 g
Final weight ([13]; 1.5 mg/kg, Once 3 days): 25.15 g
Final weight ([15]; 1.5 mg/kg, Once 3 days): 23.15 g
Rate of inhibiting tumors ([15]; 1.5 mg/kg, Once 3 days): 52.59%
Tumor weight ([15]; 1.5 mg/kg, Once 3 days): 0.531 g
Final weight ([16]; 1.5 mg/kg, Once 3 days): 23.86 g
Rate of inhibiting tumors ([16]; 1.5 mg/kg, Once 3 days): 57.25%
Tumor weight ([16]; 1.5 mg/kg, Once 3 days): 0.528 g
Final weight ([17]; 1.5 mg/kg, Once 3 days): 22.30 g
Rate of inhibiting tumors ([17]; 1.5 mg/kg, Once 3 days): 50.49%
Tumor weight ([17]; 1.5 mg/kg, Once 3 days): 0.504 g
Final weight ([19]; 1.5 mg/kg, Once 3 days): 21.11 g
Rate of inhibiting tumors ([19]; 1.5 mg/kg, Once 3 days): 65.42%
Tumor weight ([19]; 1.5 mg/kg, Once 3 days): 0.274 g
Final weight ([20]; 1.5 mg/kg, Once 3 days): 20.88 g
Rate of inhibiting tumors ([20]; 1.5 mg/kg, Once 3 days): 54.77%
Tumor weight ([20]; 1.5 mg/kg, Once 3 days): 0.427 g
Final weight ([6]; 1.5 mg/kg, Once 3 days): 23.64 g
Rate of inhibiting tumors ([6]; 1.5 mg/kg, Once 3 days): 56.36%
Tumor weight ([6]; 1.5 mg/kg, Once 3 days): 0.809 g
Final weight ([2]; 1.5 mg/kg): 22.70 g
Rate of inhibiting tumors ([2]; 1.5 mg/kg): 57.70%
Tumor weight ([2]; 1.5 mg/kg): 0.530 g

Molecule: CC(=O)O[C@H]1C(=O)[C@@]2(C)[C@H]([C@H](OC(=O)c3ccccc3)[C@]3(O)C[C@H](OC(=O)[C@H](O)[C@@H](NC(=O)c4ccccc4)c4ccccc4)C(C)=C1C3(C)C)[C@]1(OC(C)=O)CO[C@@H]1C[C@@H]2O [Taxol, reference compound]
Final weight ([7]; 10 mg/kg, Once 2 days): 22.05 g
Rate of inhibiting tumors ([7]; 10 mg/kg, Once 2 days): 74.12%
Tumor weight ([7]; 10 mg/kg, Once 2 days): 0.187 g
Final weight ([8]; 10 mg/kg, Once 2 days): 23.32 g
Rate of inhibiting tumors ([8]; 10 mg/kg, Once 2 days): 73.05%
Tumor weight ([8]; 10 mg/kg, Once 2 days): 0.335 g
Final weight ([10]; 10 mg/kg, Twicw 1 week): 22.19 g
Rate of inhibiting tumors ([10]; 10 mg/kg, Twicw 1 week): 75.55%
Tumor weight ([10]; 10 mg/kg, Twicw 1 week): 0.295 g
Rate of inhibiting tumors ([11]; 10 mg/kg, Once 2 days): 70.19%
Tumor weight ([11]; 10 mg/kg, Once 2 days): 0.276 g
Final weight ([12]; 10 mg/kg, Once 2 days): 20.43 g
Rate of inhibiting tumors ([12]; 10 mg/kg, Once 2 days): 78.13%
Tumor weight ([12]; 10 mg/kg, Once 2 days): 0.232 g
Rate of inhibiting tumors ([5]; 10 mg/kg, Twice 1 week): 70.74%
Tumor weight ([5]; 10 mg/kg, Twice 1 week): 0.590 g
Final weight ([13]; 10 mg/kg, Twice 1 week): 24.46 g
Final weight ([15]; 10 mg/kg, Once 2 days): 22.84 g
Rate of inhibiting tumors ([15]; 10 mg/kg, Once 2 days): 69.11%
Tumor weight ([15]; 10 mg/kg, Once 2 days): 0.346 g
Final weight ([16]; 10 mg/kg, Once 2 days): 23.47 g
Rate of inhibiting tumors ([16]; 10 mg/kg, Once 2 days): 65.37%
Tumor weight ([16]; 10 mg/kg, Once 2 days): 0.428 g
Final weight ([17]; 10 mg/kg, Once 2 days): 21.65 g
Rate of inhibiting tumors ([17]; 10 mg/kg, Once 2 days): 67.88%
Tumor weight ([17]; 10 mg/kg, Once 2 days): 0.327 g
Final weight ([19]; 10 mg/kg, Once 2 days): 19.58 g
Rate of inhibiting tumors ([19]; 10 mg/kg, Once 2 days): 68.77%
Tumor weight ([19]; 10 mg/kg, Once 2 days): 0.248 g
Final weight ([20]; 10 mg/kg, Once 2 days): 21.15 g
Rate of inhibiting tumors ([20]; 10 mg/kg, Once 2 days): 74.32%
Tumor weight ([20]; 10 mg/kg, Once 2 days): 0.242 g
Final weight ([6]; 10 mg/kg, Twice a week): 23.81 g
Rate of inhibiting tumors ([6]; 10 mg/kg, Twice a week): 70.60%
Tumor weight ([6]; 10 mg/kg, Twice a week): 0.545 g

Molecule: O=P1(N(CCCl)CCCl)NCCCO1 (stereo not drawn) [Cyclophosphamide]
Final weight ([9]; 15 mg/kg, Once 2 days): 23.85 g
Rate of inhibiting tumors ([9]; 15 mg/kg, Once 2 days): 74.15%
Tumor weight ([9]; 15 mg/kg, Once 2 days): 0.501 g

binding result (integrin ανβ3): binds
binding result (integrin α5β1): binds
B1: mPEG-SC20k-Ile-Val-Arg-Arg-Ala-Asp-Arg-Ala-Ala-Val-Pro-Gly-Gly-Gly-Gly-Arg-Gly-Asp (mPEG-SC20k-HM-3) (peptide)
peptide: {mPEG‑SC20k}-IVRRADRAAVPGGGGRGD
modifications: also: FITC labeled, site not given here
notes: also called integrin antagonist polypeptide
